Laboratory results: PMC5607274, “An iterative compound screening contest method for identifying target protein inhibitors using the tyrosine-protein kinase Yes” (Scientific Reports, 2017)

Target: T1, human recombinant Yes [a.a. 2–543 (end)] (Homo sapiens, UniProt P07947)
T1 construct: human recombinant Yes [a.a; 2–543 (end)]; purchased BPS Bioscience 40488
Assay: ADP-Glo kinase assay, inhibition rates of Yes phosphorylation activity (first and second screening)
Assay type: biochemical
Conditions: first screening; mean of n = 4 wells; 10 μmol L−1 compound
Summary of the method: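 ADP-Glo luminescence measured inhibition of human recombinant Yes (a.a. 2–543) phosphorylation activity. In the first screen, each compound ran in 4 wells and inhibition rates were averaged. The second screen retested hits as compounds dissolved from fresh powder.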

T1 sequence (P07947 2-543): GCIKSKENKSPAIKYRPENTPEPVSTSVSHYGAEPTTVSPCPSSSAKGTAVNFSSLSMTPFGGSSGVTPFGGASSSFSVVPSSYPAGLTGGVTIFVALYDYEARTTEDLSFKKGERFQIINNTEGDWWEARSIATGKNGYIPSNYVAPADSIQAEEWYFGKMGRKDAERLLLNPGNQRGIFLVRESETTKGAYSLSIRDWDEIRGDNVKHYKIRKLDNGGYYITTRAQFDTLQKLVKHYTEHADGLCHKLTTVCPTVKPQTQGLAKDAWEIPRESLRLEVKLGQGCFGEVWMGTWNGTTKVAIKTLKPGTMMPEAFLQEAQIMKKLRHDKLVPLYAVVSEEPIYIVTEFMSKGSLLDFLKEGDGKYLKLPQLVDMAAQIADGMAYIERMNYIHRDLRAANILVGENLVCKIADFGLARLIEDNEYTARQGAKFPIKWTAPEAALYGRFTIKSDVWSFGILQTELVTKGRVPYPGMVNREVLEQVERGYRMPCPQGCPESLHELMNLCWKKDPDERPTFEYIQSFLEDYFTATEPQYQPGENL

Row | SMILES | First screening IR (inhibition rate) [%]
1 | COc1ccc(OC)c(-n2c(-c3ccc(C)cc3)nn(CN3CCN(c4cccc(Cl)c4)CC3)c2=S)c1 [Compound Z44116384] | 31
2 | Cl.Clc1ccc(-c2cc(-c3ccccc3)c3ccccc3n2)cc1 [Compound Z48951047] | 8
3 | CCOc1ccc(-n2c(O)c3ccc(C(=O)N=C4N=c5ccccc5=N4)cc3c2O)cc1 [Compound Z27664836] | -4
4 | COc1ccc2c(c1)CC/C(=C\c1ccc(Cl)c(Cl)c1)C2=O [Compound Z46584361] | 30
5 | O=c1[nH]c2ccccc2c2nc(-c3ccc(CSc4nc5ccccc5[nH]4)cc3)nn12 [Compound Z208192218] | 16
6 | CCC(Sc1n[nH]c(C(C)C)n1)C(=O)Nc1ccc(F)cc1 (stereo not drawn) [Compound Z193785446] | -8
7 | O=C(CCCC1CCCCC1)Nc1ccc(-c2cnc[nH]2)cc1 [Compound Z91026356] | 0
8 | CN(C)c1nc(N)nc(CSc2nnc(-c3ccccc3)n2C)n1 [Compound Z193722710] | 6
9 | CCN1CCC(NC(=O)C2CCN(S(=O)(=O)c3c(C)c(C)cc(C)c3C)CC2)CC1 [Compound Z85145044] | 6
10 | COc1ccc(NC(=O)c2c(Nc3ccc(OC(F)F)cc3)sc(C(=O)Nc3ccc4c(c3)OCO4)c2N)cc1Cl [Compound Z56918070] | 16
11 | CCc1ccccc1NC(=O)CNC(=O)c1cc2ccccc2[nH]1 [Compound Z27562098] | 48
12 | O=[N+]([O-])c1ccc2nc(CSc3ccc(C(F)(F)F)cn3)[nH]c2c1 [Compound Z45358726] | 7
13 | CCCCOc1ccc(/C=C2/C(=O)Nc3ccc(Cl)cc32)cc1 [Compound Z44304381] | 6
14 | Cc1csc(CNC(=O)c2cc(-c3ccccc3)nc3c2cnn3C(C)C)n1 [Compound Z225893888] | 1
15 | Cc1cc(SCC(=O)c2cc(C)n(-c3ccccc3F)c2C)nc2ccccc12 [Compound Z20243606] | 5
16 | CNC(=O)NC(=O)COC(=O)c1cc(-c2ccccc2)nc2c1cnn2Cc1ccccc1 [Compound Z228518838] | -8
17 | CC(=O)NC12CC3CC(C1)CC(C(=O)Oc1ccc(N(C)S(=O)(=O)c4cc(C)ccc4C)cc1)(C3)C2 [Compound Z29631809] | 1
18 | COc1ccc(/C=C/c2noc(C)c2NC(=O)c2cccs2)cc1 [Compound Z226257158] | 4
19 | COc1ccc(Nc2nc(COC(=O)CNS(=O)(=O)c3ccc(C)c(C)c3)cs2)cc1 [Compound Z16158532] | -1

Row | SMILES | First screening IR (inhibition rate) [%]
20 | O=C(CN1CCN(c2nc(-c3cccnc3)nc3scc(-c4ccccc4)c23)CC1)N1CCCCC1 [Compound Z165261498] | 9
21 | CCOC(=O)c1c(NC(=O)c2ccc(C(C)(C)C)cc2)n(CCCN2CCOCC2)c2nc3ccccc3nc12 [Compound Z56786201] | 4
22 | COc1cc(/C=C2/CC(C)Cc3c2nc2ccccc2c3C(=O)O)ccc1O (stereo not drawn) [Compound Z46107807] | -4
23 | COc1ccc(-c2cc3c4ccccc4oc4nc(=N)c(C#N)c([nH]2)c43)cc1 [Compound Z85934217] | 5
24 | CCCCC(CC)CN1C(=O)/C(=C/c2c(NCCCn3ccnc3)nc3c(C)cccn3c2=O)SC1=S (stereo not drawn) [Compound Z56863942] | 0
25 | C(=C1\CCCc2c1nc1ncnn1c2-c1ccccc1)/c1ccccc1 [Compound Z56784273] | 0
26 | Cc1c(C(=O)NCCOc2ccccc2F)[nH]c2c1C(=O)CCC2 [Compound Z51995316] | 36
27 | O=C(O)c1cc(-c2cccnc2)nc2c1cnn2Cc1cccnc1 [Compound Z98638708] | 13
28 | CN(CC(=O)NC(=O)Nc1ccccc1F)C1CCCc2ccccc21 (stereo not drawn) [Compound Z52744280] | -6
29 | COc1ccccc1NC(=O)c1ccc(NC(=O)COc2ccc(-n3cnnn3)cc2)cc1 [Compound Z25181441] | 17
30 | CCOC(=O)/C=c1\s/c(=C/c2ccc(N3CCOCC3)c([N+](=O)[O-])c2)c(=O)n1CC(=O)N1CCC(C)CC1 [Compound Z48712790] | -4
31 | Cc1cc(SC(C)C(=O)Nc2ccc3[nH]c(=O)[nH]c3c2)nc2ccccc12 (stereo not drawn) [Compound Z112518822] | -20
32 | C(=C\c1ccccc1)/CN1CCN(c2ncnc3c2cnn3Cc2ccccc2)CC1 [Compound Z58287009] | 0
33 | Cc1cccc(C)c1OCc1nc2c3c(-c4ccccc4)c(-c4ccccc4)oc3ncn2n1 [Compound Z56793398] | 20
34 | CN1CCC(N(C)S(=O)(=O)c2ccc(NC(=O)Cc3ccc(F)cc3)cc2)CC1 [Compound Z28459327] | 13
35 | Cc1sc2nc(-c3cccnc3)nc(N3CCOCC3)c2c1-c1ccccc1 [Compound Z31211547] | 13
36 | Cc1c(-c2ccccc2)nc2ccc(Cl)cc2c1-c1ccccc1Cl.Cl [Compound Z48951725] | -2
37 | Cc1ccc(-c2noc(CN3CCN(Cc4nc5ccccc5c(=O)n4Cc4ccco4)CC3)n2)cc1 [Compound Z235827834] | 3
38 | CCOC(=O)c1c(N)n(CC(C)NC(=O)C2CC2)c2nc3ccccc3nc12 (stereo not drawn) [Compound Z56790662] | -2

The next lines start with the values.

Row | First screening IR (inhibition rate) [%] | SMILES
39 | -4 | CN(C)S(=O)(=O)CCCS(=O)(=O)Cc1ccc(Cl)cc1 [Compound Z1127660880]
40 | 0 | Cc1cc(C)c2c(c1)C(O)(CC(=O)c1ccccc1)C(=O)N2 (stereo not drawn) [Compound Z1013750782]
41 | -16 | Cc1noc2ncc(C(=O)NCc3cccc(Cn4ccnc4)c3)cc12 [Compound Z395825976]
42 | 1 | CC1CCN(C(=O)c2nc3ncc(Br)cn3n2)CC(C)C1 (stereo not drawn) [Compound Z1500127626]
43 | -2 | COc1ccc(CNCc2cn[nH]c2-c2ccc(C)o2)cn1 [Compound Z446209214]
44 | 8 | CCN1CCN(S(=O)(=O)C2CS(=O)(=O)c3ccccc32)CC1 (stereo not drawn) [Compound Z1031094372]
45 | -21 | CC1CN(C(=O)Nc2ccccn2)CCN1C(=O)Nc1ccccn1 (stereo not drawn) [Compound Z827524892]
46 | -4 | CCCN(CCC)S(=O)(=O)c1cccc(S(=O)(=O)N(C)C)c1 [Compound Z285950112]
47 | 6 | Cc1cccc(NCC2CCN(c3ncnc4c3cnn4C)C2)n1 (stereo not drawn) [Compound Z990436502]
48 | -3 | FC(F)(F)c1ccnc(Nc2ccc3nc(C4CC4)sc3c2)n1 [Compound Z929767438]
49 | -4 | COC(=O)c1sc2ncc(/C=C3\C(=O)Nc4ccccc43)cc2c1C [Compound Z872035512]
50 | 12 | COc1cccc(OCCN2CCN(c3cc(C(C)(C)C)nc4c(-c5ccc(Cl)cc5)c(C)nn34)CC2)c1 [Compound Z431973470]
51 | 9 | CCOC(=O)c1cc(-c2ccccc2)nc2[nH]c(=O)c3ccccc3c12 [Compound Z295883036]
52 | 10 | CCCOc1ccc(C2/C(=C(\O)c3ccc(F)cc3)C(=O)C(=O)N2CCCn2ccnc2)cc1OC (stereo not drawn) [Compound Z316169876]
53 | -4 | O=C1Cc2cc(S(=O)(=O)N3CCCc4cccc(OC(F)F)c43)ccc2N1 [Compound Z815677014]
54 | 9 | CCN(Cc1ccc(Cl)s1)C(=O)NCc1ccnc(N2CCN(C)CC2)c1 [Compound Z508129336]

Row | First screening IR (inhibition rate) [%] | SMILES
55 | 5 | O=C(CCc1ccc(-c2ccccc2F)o1)Nc1cccc(NC(=O)CCn2ccnc2)c1 [Compound Z431623528]
56 | -1 | COc1cccc(OCCN2CCN(c3cc(C)nc4c(-c5ccc(F)cc5)c(C(F)(F)F)nn34)CC2)c1 [Compound Z432102126]
57 | -3 | CC(C)(C)c1[nH]ncc1/C=C1/CCn2c1nc1cc(Cl)ccc1c2=O [Compound Z821199838]
58 | -3 | Cn1c(=O)c2cc(C(=O)Nc3ccc(F)c(Cl)c3)sc2n(C)c1=O [Compound Z818806818]
59 | 13 | Cc1nc(-c2ccc(Br)cc2)nc(NCCO)c1C [Compound Z1037335626]
60 | -15 | Cc1cc(NC(=O)/C=C/c2csc(C)n2)n(CCC#N)n1 [Compound Z826713788]
61 | 13 | Cc1cccc(C)c1OCC(O)CNc1ncnc2sc(C)c(C)c12 (stereo not drawn) [Compound Z838103434]
62 | 0 | CCCNC(=O)CN(CCC)C(=O)c1cc(-c2ccccc2)nc2c1cnn2CC [Compound Z729700802]
63 | -4 | CN(C(=O)c1ccc2c(c1)CC(c1ccccc1)OC2=O)c1nc2ccccc2s1 (stereo not drawn) [Compound Z238298390]
64 | -11 | O=C(Nc1ccc(F)cc1)NC1CCN(c2ncnc3nc[nH]c23)C1 (stereo not drawn) [Compound Z1193297141]
65 | -4 | CC1CCCN(Cc2ccc(CNCC3CNc4ccnn4C3)cc2)C1 (stereo not drawn) [Compound Z1097879141]
66 | 53 | Cc1nccn1-c1ccc(C(C)Nc2ncnc3nc(N)ccc23)cc1 (stereo not drawn) [Compound Z1537172697]
67 | -3 | Cc1ccc2[nH]c(C)c(CC(=O)Nc3n[nH]c(-c4ccccn4)n3)c2c1 [Compound Z653347886]
68 | -14 | CC(C)S(=O)(=O)CCS(=O)(=O)Cc1ccc(Cl)cc1 [Compound Z1347350562]
69 | 10 | OC1CCC(Nc2ncnc3cccc(I)c23)CC1 (stereo not drawn) [Compound Z1661333590]
